Results from patent US8134032B2, “Crystalline modifications of (1R,2R)-3-(3-dimethylamino-1-ethyl-2-methyl-propyl)-phenol” (priority 2007, dated 2012).

Columns and labels:
Assay type in all cases: physicochemical
solubility in solvents = conditions: in saturated hydrocarbons (n-pentane, n-hexane, n-heptane) and water
Text: Conventional organic solvents known to persons skilled in the art may be used as solvents in a solution of this type, in particular alcohols such as methanol, ethanol, 1-propanol and 2-propanol, esters such as ethyl acetate, ketones such as acetone and ethylmethyl ketone, ethers such as diethyl ether, tert-butyl methyl ether, 1,4-dioxane and tetrahydrofuran, nitriles such as acetonitrile, chlorinated hydrocarbons such as dichloromethane, aromatic hydrocarbons such as toluene, and also dimethyl formamide and dimethyl sulfoxide.

[1] = physical stability of amorphous modification (Example 7)
Experimental: Attempts were made to produce the amorphous modification of (1R,2R)-3-(3-dimethylamino-1-ethyl-2-methyl-propyl)-phenol by evaporation, lyophilization or melting.
7.1) 150 mg (1) were dissolved in 3 ml MeOH. The solvent was removed on a rotary evaporator. A colourless oil remained. The residue was dried in a vacuum.
7.2) 150 mg (1) were dissolved in 2 ml 1,4-dioxane. The solvent was removed by freeze-drier.
7.3) 150 mg (1) were dissolved in 2 ml 1,4-dioxane. The solvent was removed by freeze-drier (−85° C., 0.5 mbar). A colourless residue remained and crystallized spontaneously before it was possible to perform a PXRD analysis. […] The melt was frozen with dry ice. An amorphous film was obtained which crystallized within 1 hour.

[2] = crystallization of amorphous oily residues on storage (Example 1); conditions: stored at RT or at 5° C.
Experimental: Amorphous (1R,2R)-3-(3-dimethylamino-1-ethyl-2-methyl-propyl)-phenol was obtained by rapid evaporation of a solution of the compound on a rotary evaporator. The oily residues were stored at RT or at 5° C. All the samples crystallized within 24 hours.

[3] = mechanical stress: ball mill grinding and tablet compaction (Example 8); conditions: for modification obtained after tablet compaction: IR tablet press, pressure 10 t, 30 min; for modification obtained after grinding in ball mill: shaking frequency 30 sec^-1, RT, 2x90 min, 1x60 min
Experimental: The effect of mechanical stress from grinding with a ball mill (model Retsch MM200, agate vessel and agate ball with 5 mm diameter) and from pressure during the production of a tablet was analysed.
8.1) A tablet was produced with 100 mg (1) on an IR tablet press (pressure 10 t, 30 min).
8.4) 15 mg of the crystalline form A were ground in a ball mill (shaking frequency: 30 sec^−1, RT) as follows: 2×90 min, 1×60 min, 2×30 min discontinuation.

[4] = rate of dissolution in water, second determination (tablets); conditions: for rate of dissolution: tablets, in water
Experimental: (§1) To analyse the rate of dissolution of modifications A and B in water, two different determinations were carried out.

[5] = dynamic vapor sorption (DVS); conditions: 25° C.; for changes in mass (DVS): dynamic mode, 5% relative air humidity/hour; for hygroscopicity: DVS
Experimental: Crystalline modifications A and B of (1R,2R)-3-(3-dimethylamino-1-ethyl-2-methyl-propyl)-phenol were each characterized by dynamic vapor sorption (DVS). The analyses were recorded in dynamic mode (5% relative air humidity/hour).
The DVS cycles are reversible.

[6] = relative thermodynamic stability, suspension of mixtures of modifications A and B (Example 9); conditions: temperature range of 5-85° C., preferably 5-50° C.
Experimental: The suspension was shaken overnight in an Eppendorf Thermomixer at RT. The obtained solid was filtered out and characterized by FT Raman spectral analysis. […] The suspension was shaken overnight in an Eppendorf Thermomixer at RT. The resulting solid was filtered out and characterized by FT Raman spectral analysis. […] The suspension was stirred for three days at 5° C. The obtained solid was filtered out and characterized by FT Raman spectral analysis. […] The suspension was stirred overnight at 50° C. […] All solid components were dissolved. After cooling to RT, small amounts of a colourless solid were precipitated. The solvent was removed in a nitrogen flow. […]

[7] = rate of dissolution in water, first determination (stirred suspension); conditions: particle size distribution not taken into account
Experimental: as §1
Under these conditions, the particle size affects the result.

[8] = suspension of modification B in various solvents (Example 6); conditions: 2 days; for modification obtained after suspension: stirred at RT
Experimental: It was possible to exclude the formation of solvates with the selected solvents.
6.1) 200 mg (1) were suspended in 500 μl TBME. The mixture was stirred at RT for a duration of 2 days and the resulting solid was filtered out.
6.2) 100 mg (1) were suspended in 500 μl heptane/TBME (1:1). The mixture was stirred at RT for a duration of 2 days and the resulting solid was filtered out.
6.3) 100 mg (1) were suspended in 500 μl H2O. The mixture was stirred at RT for a duration of 2 days and the resulting solid was filtered out.
6.4) 100 mg (1) were suspended in 500 μl IPE. The mixture was stirred at RT for a duration of 2 days and the resulting solid was filtered out.
6.5) 100 mg (1) were suspended in 500 μl H2O/EtOH. The mixture was stirred at RT for a duration of 2 days and the resulting solid was filtered out.

CC[C@@H](c1cccc(O)c1)[C@@H](C)CN(C)C [(1R,2R)-3-(3-dimethylamino-1-ethyl-2-methyl-propyl)-phenol]
solubility (solubility in solvents): only poorly soluble

CC[C@@H](c1cccc(O)c1)[C@@H](C)CN(C)C [amorphous modification, (1R,2R)-3-(3-dimethylamino-1-ethyl-2-methyl-propyl)-phenol]
crystallization of amorphous samples ([1]; amorphous samples from evaporation, lyophilization or melting): crystallized within hours | time until amorphous film crystallized ([1]; melted at 88-91° C., melt frozen with dry ice): ≤ 1 h | time until amorphous oily residues crystallized [2]: ≤ 24 h

CC[C@@H](c1cccc(O)c1)[C@@H](C)CN(C)C [modification A, (1R,2R)-3-(3-dimethylamino-1-ethyl-2-methyl-propyl)-phenol]
modification obtained after tablet compaction [3]: Modification A | modification obtained after grinding in ball mill [3]: converted into modification B | modification obtained after grinding in ball mill ([3]; listed as form A): Modification B | polymorphic conversion during dissolution determination ([4]; tablets in water, analysed with FT Raman): converted into form B | rate of dissolution [4]: 0.003 mg/min cm^2 | changes in mass (DVS) [5]: 0.8% | hygroscopicity [5]: not or at most slightly hygroscopic

CC[C@@H](c1cccc(O)c1)[C@@H](C)CN(C)C [modification B, (1R,2R)-3-(3-dimethylamino-1-ethyl-2-methyl-propyl)-phenol]
modification obtained after tablet compaction ([3]; listed as (1)): Modification B | modification obtained after grinding in ball mill [3]: Modification B | thermodynamic stability of the form [6]: most thermodynamically stable form | rate of dissolution, comparison of forms [7]: dissolves more rapidly | rate of dissolution [4]: 0.003 mg/min cm^2 | changes in mass (DVS) [5]: 0.3% | hygroscopicity [5]: not or at most slightly hygroscopic | modification obtained after suspension ([8]; H2O): modification B | modification obtained after suspension ([8]; H2O/EtOH): modification B | modification obtained after suspension ([8]; IPE): modification B | modification obtained after suspension ([8]; TBME): modification B | modification obtained after suspension ([8]; heptane/TBME (1:1)): modification B | change upon suspension in various solvents ([8]; various solvents, RT): no change
